Common to all, as to assay: biochemical
The target in assay [1] is T1, MMP-1 (Homo sapiens, UniProt P03956).
T1 construct: made in house; host or cells: transfected HT-1080 cells (provided by Dr. Harold Welgus, Washington University)
T1 sequence (P03956 100-469): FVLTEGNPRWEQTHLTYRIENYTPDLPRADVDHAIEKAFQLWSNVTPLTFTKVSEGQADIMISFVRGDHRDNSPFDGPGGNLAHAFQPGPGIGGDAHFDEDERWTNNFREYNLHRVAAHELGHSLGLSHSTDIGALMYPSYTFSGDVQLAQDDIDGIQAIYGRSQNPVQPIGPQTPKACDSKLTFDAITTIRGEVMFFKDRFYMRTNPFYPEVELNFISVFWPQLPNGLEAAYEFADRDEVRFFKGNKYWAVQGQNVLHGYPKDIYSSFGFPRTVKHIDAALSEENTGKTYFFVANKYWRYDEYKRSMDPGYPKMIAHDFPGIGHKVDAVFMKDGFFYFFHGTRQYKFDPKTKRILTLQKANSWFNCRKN
Summed up:
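Substrate MCA-PLGL-Dpa-AR-NH2 at 4 μM final; pH 7.5 Tris/NaCl/CaCl2 buffer with 0.05% polyethyleneglycol lauryl ether, 1% DMSO, room temperature. MMP-1 was expressed in transfected HT-1080 cells and APMA-activated.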

Assay [2] concerns the target T2, MMP-2 (Homo sapiens, UniProt P08253).
T2 construct: made in house; provided by Dr. Gregory Goldberg, Washington University
T2 sequence (P08253 110-660): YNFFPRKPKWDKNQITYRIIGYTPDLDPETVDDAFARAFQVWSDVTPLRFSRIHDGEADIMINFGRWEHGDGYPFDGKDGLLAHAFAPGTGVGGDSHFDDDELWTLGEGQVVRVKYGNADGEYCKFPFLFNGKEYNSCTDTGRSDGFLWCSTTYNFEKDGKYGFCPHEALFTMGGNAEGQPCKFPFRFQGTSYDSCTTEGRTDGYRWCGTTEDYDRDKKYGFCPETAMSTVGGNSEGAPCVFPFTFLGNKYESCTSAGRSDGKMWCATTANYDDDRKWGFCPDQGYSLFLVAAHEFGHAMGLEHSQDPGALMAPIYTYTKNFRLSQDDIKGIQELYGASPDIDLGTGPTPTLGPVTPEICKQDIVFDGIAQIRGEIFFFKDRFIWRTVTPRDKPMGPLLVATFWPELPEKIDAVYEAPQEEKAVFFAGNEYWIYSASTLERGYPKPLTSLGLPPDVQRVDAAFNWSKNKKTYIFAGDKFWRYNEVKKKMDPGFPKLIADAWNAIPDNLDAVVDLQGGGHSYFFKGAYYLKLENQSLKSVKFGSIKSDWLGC
Summed up:
(§1)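 APMA- or trypsin-activated enzymes were preincubated with inhibitor for 5 min at room temperature, then the fluorogenic substrate MCA-Pro-Leu-Gly-Leu-Dpa-Ala-Arg-NH2 was added to a final 4 μM.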

In assay [3] the target is T3, MMP-13 (Homo sapiens, UniProt P45452).
T3 construct: made in house; host or cells: baculovirus / insect cells
Conditions: recombinant human MMP-13, MCA peptide substrate 4 μM, pH 7.5, room temperature; read-out: MMP-13 IC50. The procedure, abridged:
as §1

Setting [4] is: recombinant human MMP-1, MCA peptide substrate 4 μM, pH 7.5, room temperature, read-out: MMP-1 IC50.
[5] abbreviates: recombinant human MMP-2, MCA peptide substrate 4 μM, pH 7.5, room temperature, read-out: MMP-2 IC50.

Where two headings read alike, the source gives them in different places. Some results are limits rather than exact numbers.

Take `O=C(NO)C1(S(=O)(=O)c2ccc(N3CCC(Oc4c(Cl)cc(C(F)(F)F)cc4Cl)CC3)cc2)CCOCC1` [Example 570]: the results for the IC50 in assay [1] (setting [4]), in assay [2] (setting [5]) and in assay [3] were over 10000 nM, over 10000 nM and 290 nM, respectively.
For `O=C(NO)C1(S(=O)(=O)c2ccc(N3CCC(Oc4ccc(C(F)(F)F)cc4[N+](=O)[O-])CC3)cc2)CCOCC1` [Example 571], the IC50 in assay [1] (setting [4]) was over 10000 nM; in assay [2] (setting [5]), 140 nM; in assay [3] it was 28.6 nM.
In the same order, the values of `O=C(NO)C1(S(=O)(=O)c2ccc(N3CCC(OCc4cccc(Cl)c4)CC3)cc2)CCOCC1` [Example 573] are over 10000 nM, 235 nM and 11.4 nM.
In the same order, the values of `O=C(NO)C1(S(=O)(=O)c2ccc(N3CCC(OCc4ccccc4Cl)CC3)cc2)CCOCC1` [Example 574] are over 10000 nM, 220 nM and 10.6 nM.
`O=C(NO)C1(S(=O)(=O)c2ccc(N3CCC(OCc4cccc(F)c4)CC3)cc2)CCOCC1` [Example 575]: the figures for the concentration for half-maximal inhibition (IC50) in assay [1] (setting [4]), in assay [2] (setting [5]) and in assay [3] were over 10000 nM, 110 nM and 10.7 nM, respectively.
In the same order, the values of `O=C(NO)C1(S(=O)(=O)c2ccc(N3CCC(OCc4ccccc4F)CC3)cc2)CCOCC1` [Example 576] are over 10000 nM, 78 nM and 8.8 nM.
Take `O=C(NO)C1(S(=O)(=O)c2ccc(N3CCC(OCc4ccncc4)CC3)cc2)CCOCC1` [Example 577]: the 50% inhibitory concentration (IC50) in assay [1] (setting [4]) is over 10000 nM; in assay [2] (setting [5]), 2200 nM; in assay [3], 107 nM.
In the same order, the values of `O=C(NO)C1(S(=O)(=O)c2ccc(N3CCC(OCc4ccccn4)CC3)cc2)CCOCC1` [Example 578] are over 10000 nM, 2000 nM and 160 nM.
Taken in the same sequence, the figures for `O=C(NO)C1(S(=O)(=O)c2ccc(N3CCC(OCc4ccc(Br)cc4)CC3)cc2)CCOCC1` [Example 579] were over 10000 nM, 100 nM and 2.7 nM.
Taken in the same sequence, the figures for `O=C(NO)C1(S(=O)(=O)c2ccc(N3CCC(OCc4cccnc4)CC3)cc2)CCOCC1` [Example 580] were over 10000 nM, 700 nM and 37.2 nM.
With `CC1CN(c2ccc(S(=O)(=O)C3(C(=O)NO)CCOCC3)cc2)CCC1OCc1ccccc1` (stereo not drawn) [Example 581], the half-inhibitory concentration (IC50) was over 10000 nM in assay [1] (setting [4]), 480 nM in assay [2] (setting [5]) and 27 nM in assay [3].
Taken in the same sequence, the figures for `CC1CN(c2ccc(S(=O)(=O)C3(C(=O)NO)CCOCC3)cc2)CCC1OCc1ccc(F)cc1` (stereo not drawn) [Example 582] were over 10000 nM, 1800 nM and 30 nM.
Taken in the same sequence, the figures for `CC1CN(c2ccc(S(=O)(=O)C3(C(=O)NO)CCOCC3)cc2)CCC1OCc1ccc(C(F)(F)F)cc1` (stereo not drawn) [Example 583] were over 10000 nM, 4700 nM and 70 nM.
Take `CN(CCc1ccccc1)C1CCN(c2ccc(S(=O)(=O)C3(C(=O)NO)CCOCC3)cc2)CC1` [Example 584]: the IC50 in assay [1] (setting [4]) is over 10000 nM; in assay [2] (setting [5]) it was 3500 nM; in assay [3] it was 2700 nM.
Taken in the same sequence, the figures for `O=C(NO)C1(S(=O)(=O)c2ccc(N3CC=C(c4ccccc4)CC3)cc2)CCOCC1` [Example 587] were over 10000 nM, 1 nM and 1.8 nM.
Consider `Cn1c(=O)n(C2CCN(c3ccc(S(=O)(=O)C4(C(=O)NO)CCOCC4)cc3)CC2)c2ccccc21` [Example 589], for which the IC50 in assay [1] (setting [4]) is over 10000 nM; in assay [2] (setting [5]), over 10000 nM; in assay [3] it was 70 nM.
In the case of `CCCC(=O)N1CCN(c2ccc(S(=O)(=O)C3(C(=O)NO)CCOCC3)cc2)CC1` [Example 590], the concentration for half-maximal inhibition (IC50) in assay [1] (setting [4]) is over 10000 nM; in assay [2] (setting [5]), 80 nM; in assay [3] it was 121 nM.
In the same order, the values of `CCCCC(=O)N1CCN(c2ccc(S(=O)(=O)C3(C(=O)NO)CCOCC3)cc2)CC1` [Example 591] are over 10000 nM, 730 nM and 70 nM.
Taken in the same sequence, the figures for `CCCCCC(=O)N1CCN(c2ccc(S(=O)(=O)C3(C(=O)NO)CCOCC3)cc2)CC1` [Example 592] were over 10000 nM, 690 nM and 57 nM.
In the same order, the values of `O=C(c1ccccc1)N1CCN(c2ccc(S(=O)(=O)C3(C(=O)NO)CCOCC3)cc2)CC1` [Example 593] are over 10000 nM, 650 nM and 420 nM.
As to `COc1ccc(C(=O)N2CCN(c3ccc(S(=O)(=O)C4(C(=O)NO)CCOCC4)cc3)CC2)cc1` [Example 594], the IC50 is over 10000 nM in assay [1], 650 nM in assay [2] (MMP-2 IC50 (nM)) and 570 nM in assay [3].
With `O=C(c1ccc(OC(F)(F)F)cc1)N1CCN(c2ccc(S(=O)(=O)C3(C(=O)NO)CCOCC3)cc2)CC1` [Example 595], the values for the IC50 in assay [1] (setting [4]), in assay [2] (setting [5]) and in assay [3] were over 10000 nM, 425 nM and 270 nM, respectively.
In the same order, the values of `CCCCSC1CCN(c2ccc(S(=O)(=O)C3(C(=O)NO)CCOCC3)cc2)CC1` [Example 596] are over 10000 nM, 10.6 nM and 1.1 nM.
Take `CCCCCN(C)C1CCN(c2ccc(S(=O)(=O)C3(C(=O)NO)CCOCC3)cc2)CC1` [Example 597]: the half-inhibitory concentration (IC50) in assay [1] (setting [4]) was over 10000 nM; in assay [2] (setting [5]), 700 nM; in assay [3], 670 nM.
In the case of `CC(C)CCOCc1ccc(COC2CCN(c3ccc(S(=O)(=O)C4(C(=O)NO)CCOCC4)cc3)CC2)cc1` [Example 600], the results for the IC50 in assay [1] (setting [4]), in assay [2] (setting [5]) and in assay [3] were over 10000 nM, 600 nM and 9 nM, respectively.
Taken in the same sequence, the figures for `CCC(C)COCc1ccc(COC2CCN(c3ccc(S(=O)(=O)C4(C(=O)NO)CCOCC4)cc3)CC2)cc1` (stereo not drawn) [Example 601] were over 10000 nM, 1300 nM and 9 nM.
In the case of `CCC(CC)COCc1ccc(COC2CCN(c3ccc(S(=O)(=O)C4(C(=O)NO)CCOCC4)cc3)CC2)cc1` [Example 602], the values for the IC50 in assay [1] (setting [4]), in assay [2] (setting [5]) and in assay [3] were over 10000 nM, 3000 nM and 70 nM, respectively.
Taken in the same sequence, the figures for `CCC(C)CCOCc1ccc(COC2CCN(c3ccc(S(=O)(=O)C4(C(=O)NO)CCOCC4)cc3)CC2)cc1` (stereo not drawn) [Example 603] were over 10000 nM, 2300 nM and 15.8 nM.
Consider `O=C(NO)C1(S(=O)(=O)c2ccc(N3CCC(OCc4ccc(COCC5CCCCC5)cc4)CC3)cc2)CCOCC1` [Example 604], for which the figures for the IC50 in assay [1] (setting [4]), in assay [2] (setting [5]) and in assay [3] were over 10000 nM, 2500 nM and 20 nM, respectively.
In the same order, the values of `O=C(NO)C1(S(=O)(=O)c2ccc(N3CCC(OCc4ccc(COCC5CCCC5)cc4)CC3)cc2)CCOCC1` [Example 605] are over 10000 nM, 2000 nM and 10.6 nM.
Taken in the same sequence, the figures for `O=C(NO)C1(S(=O)(=O)c2ccc(N3CCC(OCc4ccc(COCCF)cc4)CC3)cc2)CCOCC1` [Example 606] were over 10000 nM, 77 nM and 3 nM.
In the case of `O=C(NO)C1(S(=O)(=O)c2ccc(N3CCC(OCc4ccc(COCC(F)(F)F)cc4)CC3)cc2)CCOCC1` [Example 607], the IC50 is over 10000 nM in assay [1] (setting [4]), 220 nM in assay [2] (setting [5]) and 2.9 nM in assay [3].

Broadly, the IC50 is the concentration at which inhibition is half-maximal.

The record behind these values is patent US6750228B1, “Aromatic sulfone hydroxamic acid metalloprotease inhibitor” (priority 1997, dated 2004).
